Results published in the NIST ThermoML archive (doi:10.1016/j.jct.2018.04.007).

Key:
[1] = wn = mass fraction of the nth substance listed; details: 96.2 kPa, Liquid, w1 = 0.3; for viscosity: Cone and plate viscometry; for mass density: Pycnometric method; for thermal conductivity: transient hot wire
[2] = molar heat capacity at constant pressure; wn = mass fraction of the nth substance listed; details: 96.2 kPa, Liquid, DSC, w1 = 0.3

CC(O)CO (stereo unspecified) [1,2-propanediol] + O
Details | mass density, [1] [kg/m3] | molar heat capacity at constant pressure, [2] [J/K/mol] | thermal conductivity, [1] [W/m/K] | viscosity, [1] [mPa·s]
293.15 K | 1023.1 | 89.44 | 0.443 | 3.02
303.15 K | 1019.2 | 90 | 0.454 | 2.2
313.15 K | 1014.5 | 90.52 | 0.463 | 1.61
323.15 K | 1009 | 91.03 | 0.472 | 1.31
